Data taken from BigSolDB 2.1.

CC[n+]1ccccc1.F[P-](F)(F)(F)(F)F
solubility (mole fraction)
Settings	in ethanol	in water
278.15 K	8.4e-05	0.000474
283.15 K	0.000121	0.000581
288.15 K	0.000171	0.000711
293.15 K	0.000224	0.000857
298.15 K	0.000324	0.00105
303.15 K	0.000561	0.0013
308.15 K	0.00061	0.00159
313.15 K	0.000718	0.00186
318.15 K	0.000976	0.00216
323.15 K	0.0015	0.0026
328.15 K	0.00189	0.00325
333.15 K	0.00252	0.00387
338.15 K	0.00308	0.00454
343.15 K	0.00389	0.00535
